Values quoted from earlier work in PubChem BioAssay AID1259409 (Chemical Carcinogenesis Research Information System (CCRIS), 2018).
Several values for one entry are separate records, joined by “and”; a condition that tells them apart may be missing. Identical values can stand only once.

Tested on: rodent chemically induced tumor inhibition, incidence and multiplicity
Experiment: CCRIS tumor inhibitor studies

CC(C)=CCC/C(C)=C/COc1c2ccoc2cc2oc(=O)ccc12
tumour outcome (control, treated, inhibition, significance) (Carcinogen: 7,12-DIMETHYLBENZ[A]ANTHRACENE, 57-97-6, Dose [Inhibitor]: 0, 400 NMOL ONCE APPLIED 5 MIN PRIOR TO CARCINOGEN DOSE (STUDY DURATION: 25 WK), Route [Inhibitor]: DERMAL, Species: MOUSE, Strain/Sex: SENCAR, Target Tissue: Type of Lesion: SKIN: PAPILLOMA, Dose [Carcinogen]: 10 NMOL ONCE, Promoter: 12-O-TETRADECANOYLPHORBOL-13-ACETATE, 16561-29-8): 96%, 100%, -4%, not significant | tumour outcome (control, treated, inhibition, significance) (Carcinogen: 7-12-DIMETHYLBENZ[A]ANTHRACENE, 57-97-6, Dose [Inhibitor]: 0, 800 NMOL ONCE APPLIED 5 MIN PRIOR TO CARCINOGEN DOSE (STUDY DURATION: 25 WK), Route [Inhibitor]: DERMAL, Species: MOUSE, Strain/Sex: SENCAR, Target Tissue: Type of Lesion: SKIN: PAPILLOMA, Dose [Carcinogen]: 10 NMOL ONCE, Promoter: 12-O-TETRADECANOYLPHORBOL-13-ACETATE, 16561-29-8): 96%, 100%, -4%, not significant and 93%, 96%, -3%, not significant | tumour outcome (control, treated, inhibition, significance) (Carcinogen: BENZO[A]PYRENE, 50-32-8, Dose [Inhibitor]: 0, 20 NMOL ONCE APPLIED 5 MIN PRIOR TO CARCINOGEN DOSE (STUDY DURATION: 25 WK), Route [Inhibitor]: DERMAL, Species: MOUSE, Strain/Sex: SENCAR, Target Tissue: Type of Lesion: SKIN: PAPILLOMA, Dose [Carcinogen]: 200 NMOL ONCE, Promoter: 12-O-TETRADECANOYLPHORBOL-13-ACETATE, 16561-29-8): 91%, 100%, -10%, not significant | tumour outcome (control, treated, inhibition, significance) (Carcinogen: BENZO[A]PYRENE, 50-32-8, Dose [Inhibitor]: 0, 100 NMOL ONCE APPLIED 5 MIN PRIOR TO CARCINOGEN DOSE (STUDY DURATION: 25 WK), Route [Inhibitor]: DERMAL, Species: MOUSE, Strain/Sex: SENCAR, Target Tissue: Type of Lesion: SKIN: PAPILLOMA, Dose [Carcinogen]: 200 NMOL ONCE, Promoter: 12-O-TETRADECANOYLPHORBOL-13-ACETATE, 16561-29-8): 91%, 87%, 4%, not significant | tumour outcome (control, treated, inhibition, significance) (Carcinogen: BENZO[A]PYRENE, 50-32-8, Dose [Inhibitor]: 0, 400 NMOL ONCE APPLIED 5 MIN PRIOR TO CARCINOGEN DOSE (STUDY DURATION: 25 WK), Route [Inhibitor]: DERMAL, Species: MOUSE, Strain/Sex: SENCAR, Target Tissue: Type of Lesion: SKIN: PAPILLOMA, Dose [Carcinogen]: 200 NMOL ONCE, Promoter: 12-O-TETRADECANOYLPHORBOL-13-ACETATE, 16561-29-8): 91%, 92%, -1%, not significant | tumour outcome (control, treated, inhibition, significance) (Carcinogen: BENZO[A]PYRENE, 50-32-8, Dose [Inhibitor]: 0, 800 NMOL ONCE APPLIED 5 MIN PRIOR TO CARCINOGEN DOSE (STUDY DURATION: 25 WK), Route [Inhibitor]: DERMAL, Species: MOUSE, Strain/Sex: SENCAR, Target Tissue: Type of Lesion: SKIN: PAPILLOMA, Dose [Carcinogen]: 200 NMOL ONCE, Promoter: 12-O-TETRADECANOYLPHORBOL-13-ACETATE, 16561-29-8): 91%, 82%, 10%, not significant

CCN1CCCC1CNC(=O)c1cc(S(N)(=O)=O)ccc1OC (configuration not stated)
tumour outcome (control, treated, inhibition, significance) (Carcinogen: N-METHYL-N'-NITRO-N-NITROSOGUANIDINE, 70-25-7, Dose [Inhibitor]: 0, 30 MG/KG 1/2 D BEGINNING 1 WK POST CARCINOGEN TREATMENT AND CONTINUING FOR DURATION OF STUDY (STUDY DURATION: 52 WK), Route [Inhibitor]: SUBCUTANEOUS, Species: RAT, Strain/Sex: WISTAR/MALE, Target Tissue: Type of Lesion: STOMACH: ADENOCARCINOMA, Dose [Carcinogen]: 50 UG/ML IN DRINKING WATER FOR 25 WK, Promoter: NONE USED): 13/18 (72%), 11/18 (61%), 15%, not significant | tumour outcome (control, treated, inhibition, significance) (Carcinogen: N-METHYL-N'-NITRO-N-NITROSOGUANIDINE, 70-25-7, Dose [Inhibitor]: 0, 30 MG/KG IN 2 ML/KG 0.9% NACL 1/2 D FOR STUDY DURATION BEGINNING POST CARCINOGEN TREATMENT (STUDY DURATION: 52 WK), Route [Inhibitor]: SUBCUTANEOUS, Species: RAT, Strain/Sex: WISTAR/MALE, Target Tissue: Type of Lesion: GLANDULAR STOMACH: ADENOCARCINOMA, Dose [Carcinogen]: 50 UG/ML DRINKING WATER FOR 25 WK): 13/18 (72%), 11/18 (61%), 15%, not significant

O=c1c(O)c(-c2cc(O)c(O)c(O)c2)oc2cc(O)cc(O)c12
tumour outcome (control, treated, inhibition, significance) (Carcinogen: 7,12-DIMETHYLBENZ[A]ANTHRACENE, 57-97-6, Dose [Inhibitor]: 100 UG IN 0.2 ML ACETONE ONCE 5 MIN BEFORE CARCINOGEN TREATMENT (STUDY DURATION: 31 WK), Route [Inhibitor]: DERMAL, Species: MOUSE, Strain/Sex: CD-1/FEMALE, Target Tissue: Type of Lesion: SKIN: PAPILLOMA, Dose [Carcinogen]: 10 NMOL IN 0.2 ML ACETONE ONCE, Promoter: 12-O-TETRADECANOYLPHORBOL-13-ACETATE, 16561-29-8): 87%, 85%, 2%, not calculated | tumour outcome (control, treated, inhibition, significance) (Carcinogen: (+/-)-7BETA,8ALPHA-DIHYDROXY-9ALPHA,10ALPHA-EPOXY-7,8,9,10-TETRAHYDROBENZO[A]PYR ENE, 58917-67-2, Dose [Inhibitor]: 0, 1400 NMOL (TOTAL DOSE) 10 MIN PRIOR TO CARCINOGEN DOSE INJECTED AS 1/7, 2/7, AND 4/7 OF THE TOTAL ON DAYS 1, 8, AND 1, Route [Inhibitor]: INTRAPERITONEAL, Species: MOUSE, Strain/Sex: ICR/MALE,FEMALE, Target Tissue: Type of Lesion: LUNG: TUMOR, Dose [Carcinogen]: 30 NMOL (TOTAL DOSE) INJECTED IN DOSES OF 1/7, 2/7, AND 4/7 ON DAYS 1,8, AND 15 OF LIFE, RESPECTIVELY, Promoter: NONE USED): 93%, 65%, 30%, p<0.05 | tumour outcome (control, treated, inhibition, significance) (Carcinogen: (+/-)-7BETA,8ALPHA-DIHYDROXY-9ALPHA,10ALPHA-EPOXY-7,8,9,10-TETRAHYDROBENZO[A]PYR ENE, 58917-67-2, Dose [Inhibitor]: 0, 1400 NMOL (TOTAL DOSE) APPLIED 10 MIN PRIOR TO CARCINOGEN DOSE INJECTED AS 1/7, 2/7, AND 4/7 OF THE TOTAL ON DAYS 1,, Route [Inhibitor]: INTRAPERITONEAL, Species: MOUSE, Strain/Sex: ICR/MALE,FEMALE, Target Tissue: Type of Lesion: LUNG: TUMOR, Dose [Carcinogen]: 15 NMOL (TOTAL DOSE) INJECTED IN DOSES OF 1/7, 2/7, AND 4/7 ON DAYS 1, 8, AND 15 OF LIFE, RESPECTIVELY, Promoter: NONE USED): 63%, 36%, 43%, p<0.05 | tumour outcome (control, treated, inhibition, significance) (Carcinogen: BENZO[A]PYRENE, 50-32-8, Dose [Inhibitor]: 0, 1400 NMOL (TOTAL DOSE) APPLIED 10 MIN PRIOR TO CARCINOGEN DOSE INJECTED AS 1/7, 2/7, AND 4/7 OF THE TOTAL ON DAYS 1,, Route [Inhibitor]: INTRAPERITONEAL, Species: MOUSE, Strain/Sex: ICR/MALE,FEMALE, Target Tissue: Type of Lesion: LUNG: TUMOR, Dose [Carcinogen]: 450 NMOL (TOTAL DOSE) INJECTED IN DOSES OF 1/7, 2/7, AND 4/7 ON DAYS 1, 8, AND 15 OF LIFE, RESPECTIVELY, Promoter: NONE USED): 73%, 79%, -8%, not significant
